Results taken from PubChem BioAssay (NCI).
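Five compound concentrations were applied to cells in 96-well plates for 48 hours; endpoints were derived by simple linear interpolation of the resulting dose-response curve. Here, GI50 denotes the concentration required for 50% inhibition of growth. TGI denotes the concentration required for complete inhibition of growth.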

Key:
Test in all cases: NCI anticancer screen, dose series, 48 h
HCT-116 colon = test system: HCT-116 colon
NCI-H23 lung = test system: NCI-H23 lung
SNB-19 CNS = test system: SNB-19 CNS
786-0 renal = test system: 786-0 renal
U251 CNS = test system: U251 CNS
K-562 leukemia = test system: K-562 leukemia
HOP-62 NSCLC = test system: HOP-62 NSCLC
HT29 colon = test system: HT29 colon
SF-268 CNS = test system: SF-268 CNS
COLO 205 colon = test system: COLO 205 colon

## CC(CCC(=O)O)[C@H]1CCC2[C@@H]3CC[C@@H]4CC(O)CC[C@]4(C)C3CC[C@@]21C (some centres not stated)
HCT-116 colon
  GI50: 30.4 µM
  TGI: > 100 µM
NCI-H23 lung
  GI50: 15.6 µM
  TGI: 37.9 µM
SNB-19 CNS
  GI50: 56.5 µM
  TGI: > 100 µM
786-0 renal
  GI50: 49.3 µM
  TGI: > 100 µM
U251 CNS
  GI50: 40.2 µM
  TGI: > 100 µM
K-562 leukemia
  GI50: 32.6 µM
  TGI: > 100 µM
HOP-62 NSCLC
  GI50: 37.2 µM
  TGI: > 100 µM
HT29 colon
  GI50: 46.1 µM
  TGI: > 100 µM
SF-268 CNS
  GI50: > 100 µM
  TGI: > 100 µM
COLO 205 colon
  GI50: 23.7 µM
  TGI: 53.1 µM

## COC(=O)[C@@]1(C)CC[C@]2(C)CC[C@]3(C)C4=CC=C5C(=CC(=O)C(O)=C5C)[C@]4(C)[C@@H](O)C[C@@]3(C)[C@@H]2C1
HCT-116 colon
  GI50: 3.67 µM
  TGI: 14.3 µM
NCI-H23 lung
  GI50: 13.5 µM
  TGI: 28.4 µM
SNB-19 CNS
  GI50: 12.4 µM
  TGI: 23.8 µM
786-0 renal
  GI50: 1.79 µM
  TGI: 5.23 µM
U251 CNS
  GI50: 8.71 µM
  TGI: 18.7 µM
K-562 leukemia
  GI50: 4.25 µM
  TGI: 20.9 µM
HOP-62 NSCLC
  GI50: 13.3 µM
  TGI: 25.9 µM
HT29 colon
  GI50: 10.8 µM
  TGI: 23.1 µM
SF-268 CNS
  GI50: 9.62 µM
  TGI: 22.2 µM
COLO 205 colon
  GI50: 7.36 µM
  TGI: 22.2 µM

## Nc1ccccc1C#C/C=C\C#Cc1cccs1
HCT-116 colon
  GI50: 9.55 µM
  TGI: 46.5 µM
NCI-H23 lung
  GI50: 14.3 µM
  TGI: 41.2 µM
SNB-19 CNS
  GI50: 43.5 µM
  TGI: > 100 µM
786-0 renal
  GI50: 13.5 µM
  TGI: 35.1 µM
U251 CNS
  GI50: 8.34 µM
  TGI: 27.5 µM
K-562 leukemia
  GI50: 3.53 µM
  TGI: > 100 µM
HOP-62 NSCLC
  GI50: 11.2 µM
  TGI: 33.2 µM
HT29 colon
  GI50: 20.3 µM
  TGI: 57.3 µM
SF-268 CNS
  GI50: 4.26 µM
  TGI: 34.9 µM
COLO 205 colon
  GI50: 18.2 µM
  TGI: 78.3 µM

## CC(C)c1cc(-c2n[nH]c(=O)n2-c2ccc3c(ccn3C)c2)c(O)cc1O
HCT-116 colon
  GI50: < 0.0141 µM
  TGI: 13.5 µM
NCI-H23 lung
  GI50: 0.0247 µM
  TGI: 26.7 µM
SNB-19 CNS
  GI50: < 0.0236 µM
  TGI: > 48.5 µM
786-0 renal
  GI50: 0.0686 µM
  TGI: 45.4 µM
U251 CNS
  GI50: < 0.0257 µM
  TGI: 18 µM
K-562 leukemia
  GI50: < 0.0123 µM
  TGI: > 100 µM
HOP-62 NSCLC
  GI50: 0.0794 µM
  TGI: 31.8 µM
HT29 colon
  GI50: 0.0423 µM
  TGI: 12.5 µM
SF-268 CNS
  GI50: 9.69 µM
  TGI: 38.9 µM
COLO 205 colon
  GI50: 0.0259 µM
  TGI: 0.981 µM

## COc1cc(C2CC(c3ccc4c(c3)OCO4)=NN2C=O)cc(OC)c1OC (configuration not stated)
HCT-116 colon
  GI50: 1.52 µM
  TGI: > 100 µM
NCI-H23 lung
  GI50: 4.14 µM
  TGI: > 100 µM
SNB-19 CNS
  GI50: 6.3 µM
  TGI: > 100 µM
786-0 renal
  GI50: 5.26 µM
  TGI: > 100 µM
U251 CNS
  GI50: 4.42 µM
  TGI: > 100 µM
K-562 leukemia
  GI50: 0.621 µM
  TGI: > 100 µM
HOP-62 NSCLC
  GI50: 2.81 µM
  TGI: > 100 µM
HT29 colon
  GI50: 0.467 µM
  TGI: > 100 µM
SF-268 CNS
  GI50: 6.88 µM
  TGI: > 100 µM
COLO 205 colon
  GI50: 1.3 µM
  TGI: 5.91 µM

## CCOC(=O)c1c2c(n3ccccc13)C(=O)c1ccccc1C2=O
HCT-116 colon
  TGI: > 100 µM
NCI-H23 lung
  TGI: > 100 µM
SNB-19 CNS
  TGI: > 100 µM
786-0 renal
  TGI: > 100 µM
U251 CNS
  TGI: > 100 µM
K-562 leukemia
  TGI: > 100 µM
HOP-62 NSCLC
  TGI: > 100 µM
HT29 colon
  TGI: > 100 µM
SF-268 CNS
  TGI: > 100 µM
COLO 205 colon
  TGI: > 100 µM

## COc1ccc(-c2csc(N(C(=O)N3CCN(c4cc5c(cc4F)c(=O)c(C(=O)O)cn5C4CC4)CC3)c3ccccc3)n2)cc1
HCT-116 colon
  GI50: 0.897 µM
  TGI: > 63.7 µM
NCI-H23 lung
  GI50: 2.96 µM
  TGI: 18.4 µM
SNB-19 CNS
  GI50: 1.11 µM
  TGI: > 100 µM
786-0 renal
  GI50: 1.15 µM
  TGI: > 66 µM
U251 CNS
  GI50: 0.973 µM
  TGI: > 34.3 µM
K-562 leukemia
  GI50: 3.1 µM
  TGI: > 100 µM
HOP-62 NSCLC
  GI50: 1.12 µM
  TGI: > 79 µM
HT29 colon
  GI50: 3.62 µM
  TGI: 46.2 µM
SF-268 CNS
  GI50: 3.2 µM
  TGI: > 100 µM
COLO 205 colon
  GI50: 3 µM
  TGI: 9.22 µM

## CC1=Nc2ccccc2S/C1=C(/C)NNC(=O)C(N)=O
HCT-116 colon
  TGI: > 100 µM
NCI-H23 lung
  TGI: > 100 µM
SNB-19 CNS
  TGI: > 100 µM
786-0 renal
  TGI: > 100 µM
U251 CNS
  TGI: > 100 µM
K-562 leukemia
  TGI: > 100 µM
HOP-62 NSCLC
  TGI: > 100 µM
HT29 colon
  TGI: > 100 µM
SF-268 CNS
  TGI: > 100 µM
COLO 205 colon
  TGI: > 100 µM

## Cc1ccc(NC(=O)C(=O)C(C#N)c2ccccc2C)cc1C (configuration not stated)
HCT-116 colon
  TGI: > 63 µM
NCI-H23 lung
  TGI: > 100 µM
SNB-19 CNS
  TGI: > 100 µM
786-0 renal
  TGI: > 100 µM
U251 CNS
  TGI: > 100 µM
K-562 leukemia
  TGI: > 70.1 µM
HOP-62 NSCLC
  TGI: > 100 µM
HT29 colon
  TGI: > 100 µM
SF-268 CNS
  TGI: > 100 µM
COLO 205 colon
  TGI: > 67.3 µM

## COC(=O)[C@H](C[C@H](Cc1ccccc1)NC(=O)c1csc([C@@H](C[C@H](C(C)C)N(C)C(=O)[C@@H](NC(=O)[C@H]2CCCCN2C)C(C)C)OC(C)=O)n1)NC(=O)OCc1ccccc1
HCT-116 colon
  GI50: < 0.0009 µM
NCI-H23 lung
  GI50: 0.00111 µM
  TGI: > 9 µM
SNB-19 CNS
  GI50: < 0.0009 µM
  TGI: > 9 µM
786-0 renal
  GI50: 0.00159 µM
  TGI: > 3.67 µM
U251 CNS
  GI50: < 0.0009 µM
  TGI: > 9 µM
K-562 leukemia
  GI50: < 0.0009 µM
  TGI: > 3.46 µM
HOP-62 NSCLC
  GI50: < 0.0009 µM
  TGI: > 9 µM
HT29 colon
  GI50: < 0.0009 µM
SF-268 CNS
  GI50: 0.000974 µM
  TGI: > 9 µM
COLO 205 colon
  GI50: < 0.0009 µM

## C#CCOCn1cnc2c(Cl)ncnc21
HCT-116 colon
  TGI: > 100 µM
NCI-H23 lung
  TGI: > 100 µM
SNB-19 CNS
  TGI: > 100 µM
786-0 renal
  TGI: > 100 µM
U251 CNS
  TGI: > 100 µM
K-562 leukemia
  TGI: > 100 µM
HOP-62 NSCLC
  TGI: > 100 µM
HT29 colon
  TGI: > 100 µM
SF-268 CNS
  TGI: > 100 µM
COLO 205 colon
  TGI: > 100 µM
